Patent US9670214B2, “Small molecule myristate inhibitors of Bcr-abl and methods of use” (DANA-FARBER CANCER INSTITUTE, INC., priority 2007, dated 2017)

Key:
[1] = system: Ba/F3 cells (IL-3 dependent murine pro-B cell line); assay: Proliferation assay (MTT), parental Ba/F3 cells; assay type: cell-based; conditions: Mus musculus, 48 h, drug concentrations 0.005-10 μM, read-out: BaF3
Experimental: Interleukin-3 (IL-3) dependent murine pro-B cell line, Ba/F3, and murine myeloid precursor cell line, 32D, were maintained in RPMI-1640 medium supplemented with L-Glutamine, 10% FBS and 10 U/ml recombinant murine IL-3 (Roche). Mo7e human megakarioblastic cell line was grown in RPMI-1640 medium supplemented with L-Glutamine, 20% FBS and 5 ng/ml recombinant human granulocyte macrophage cell stimulating factor (GM-CSF) (R&D Systems) or 200 ng/ml stem cell factor (SCF) (Biosource).
(§1) Cells (0.3-0.6×10^6/ml) were plated in duplicate or triplicate in 96-well plates containing increasing drug concentrations (0.005-10 μM). After incubation at 37° C. in 5% CO2 for 48 h, the effect of the compounds on cell viability was determined by MTT (Promega) colorimetric dye reduction method. Inhibition of cell proliferation was calculated as a percentage of growth of DMSO treated cells, and IC50 values were determined with Microsoft Excel XLfit3.

[2] = molecular target: Bcr-abl T315I (Ba/F3.p210^T315I cells) (Homo sapiens, UniProt P00519, T315I, cells depend on it); assay: Proliferation assay (MTT), T315I mutant Bcr-abl expressing Ba/F3 cells; assay type: cell-based, murine; conditions: 48 h, drug concentrations 0.005-10 μM
From the text: Wild type Bcr-abl expressing 32D (32D.p210) and Ba/F3 (Ba/F3.p210) cells, and mutant Bcr-abl expressing cell lines Ba/F3.p210^G250E, Ba/F3.p210^E255V, Ba/F3.p210^T315I, Ba/F3.p210^F317L and Ba/F3.p210^M351T, as well as Ba/F3 cells transformed with Flt-3-ITD kinase. Additional assays included Ba/F3 cells expressing the fusion protein kinases TEL-PDGFRβ, TEL-JAK1, NPM-ALK, TEL-cKit, Tel-Bmx, Tel-FGR3, Tel-Lck and Ba/F3.TPR-met cells. All the above cell lines were maintained in RPMI-1640 medium with L-Glutamine, 10% FBS and 1 mg/ml geneticin (Gibco).
as §1

OC[C@H]1OC(n2ccc3c(Nc4ccc(OC(F)(F)F)cc4)ncnc32)[C@H](O)[C@@H]1O (stereo partly shown)
IC50 [1]: > 10 µM

COc1ccc(Cn2ccc3c(Nc4ccc(OC(F)(F)F)cc4)ncnc32)cc1
IC50 [1]: > 10 µM

COCCCNC(=O)CCn1ccc2c(Nc3ccc(OC(F)(F)F)cc3)ncnc21
IC50 [1]: > 10 µM

Cn1c(C(=O)N2CCC(Br)CC2)cc2c(Nc3ccc(OC(F)(F)F)cc3)ncnc21
IC50 [1]: > 10 µM

CCOC(=O)C1CCCN(C(=O)c2cc3c(Nc4ccc(OC(F)(F)F)cc4)ncnc3n2C)C1 (stereo not shown)
IC50 [1]: > 10 µM

Cn1c(C(=O)N2CCCC(CO)C2)cc2c(Nc3ccc(OC(F)(F)F)cc3)ncnc21 (stereo not shown)
IC50 [1]: 7.29 µM

Cn1c(C(=O)N2CCC3(CC2)C(=O)NCN3c2ccccc2)cc2c(Nc3ccc(OC(F)(F)F)cc3)ncnc21
IC50 [1]: > 10 µM

COC[C@H]1CCCN1C(=O)c1cc2c(Nc3ccc(OC(F)(F)F)cc3)ncnc2n1C
IC50 [1]: > 10 µM

CCNC(=O)c1cc2c(Nc3ccc(OC(F)(F)F)cc3)ncnc2n1C
IC50 [1]: 5.37 µM

COC(=O)c1cc2c(Nc3ccc(OC(F)(F)F)cc3)ncnc2s1
IC50 [2]: > 10 µM
IC50 [1]: > 10 µM

O=C(O)c1cc2c(Nc3ccc(OC(F)(F)F)cc3)ncnc2s1
IC50 [2]: > 10 µM
IC50 [1]: > 10 µM

OCc1cc2c(Nc3ccc(OC(F)(F)F)cc3)ncnc2s1
IC50 [1]: > 10 µM

CCNC(=O)c1cc2c(Nc3ccc(OC(F)(F)F)cc3)ncnc2s1
IC50 [2]: > 10 µM
IC50 [1]: > 10 µM

CN(C)C1CCN(Cc2cc3c(Nc4ccc(OC(F)(F)F)cc4)ncnc3s2)C1 (stereo not shown)
IC50 [2]: > 10 µM
IC50 [1]: > 10 µM

CN(C)C1CCN(C(=O)c2cc3c(Nc4ccc(OC(F)(F)F)cc4)ncnc3s2)C1 (stereo not shown)
IC50 [2]: > 10 µM
IC50 [1]: > 10 µM

O=C(NC1CCN(Cc2ccccc2)C1)c1cc2c(Nc3ccc(OC(F)(F)F)cc3)ncnc2s1 (stereo not shown)
IC50 [2]: 0.621 µM
IC50 [1]: 0.926 µM

O=C(c1cc2c(Nc3ccc(OC(F)(F)F)cc3)ncnc2s1)N1CCC[C@H]1CO
IC50 [2]: 1.21 µM
IC50 [1]: 3.66 µM

O=C(c1cc2c(Nc3ccc(OC(F)(F)F)cc3)ncnc2s1)N1CCN(N2CCCC2)CC1
IC50 [1]: 5.77 µM

O=C(c1cc2c(Nc3ccc(OC(F)(F)F)cc3)ncnc2s1)N1CCN(c2cccc(C(F)(F)F)c2)CC1
IC50 [2]: 1.92 µM
IC50 [1]: 4.55 µM

CN1CCN(C(=O)c2cc3c(Nc4ccc(OC(F)(F)F)cc4)ncnc3s2)CC1
IC50 [2]: 1.25 µM
IC50 [1]: 2.69 µM

O=C(c1cc2c(Nc3ccc(OC(F)(F)F)cc3)ncnc2s1)N1CCC(O)CC1
IC50 [2]: > 10 µM
IC50 [1]: > 10 µM

COC1CCN(C(=O)c2cc3c(Nc4ccc(OC(F)(F)F)cc4)ncnc3s2)CC1
IC50 [1]: > 10 µM

FC(F)(F)Oc1ccc(Nc2ncnc3sccc23)cc1
IC50 [2]: > 10 µM
IC50 [1]: > 10 µM

Cc1cc2c(Nc3ccc(OC(F)(F)F)cc3)ncnc2s1
IC50 [2]: > 10 µM
IC50 [1]: > 10 µM

CCOC(=O)Cc1cnc(NC(=O)c2ccc3c(Nc4ccc(OC(F)(F)F)cc4)ncnc3c2)s1
IC50 [1]: > 10 µM

CN(C)C1CCN(C(=O)c2ccc3c(Nc4ccc(OC(F)(F)F)cc4)ncnc3c2)C1 (stereo not shown)
IC50 [1]: > 10 µM

CN1CCCN(C(=O)c2ccc3c(Nc4ccc(OC(F)(F)F)cc4)ncnc3c2)CC1
IC50 [1]: 6.98 µM

O=C(c1ccc2c(Nc3ccc(OC(F)(F)F)cc3)ncnc2c1)N1CCC(O)CC1
IC50 [1]: > 10 µM

O=C(c1ccc2c(Nc3ccc(OC(F)(F)F)cc3)ncnc2c1)N1CCC(Br)CC1
IC50 [1]: 7.42 µM

NC(=O)C1CCN(C(=O)c2ccc3c(Nc4ccc(OC(F)(F)F)cc4)ncnc3c2)CC1
IC50 [1]: > 10 µM

O=C(c1ccc2c(Nc3ccc(OC(F)(F)F)cc3)ncnc2c1)N1CCCC(CO)C1 (stereo not shown)
IC50 [1]: > 10 µM

O=C1Cc2c(ncnc2Nc2ccc(OC(F)(F)F)cc2)N1
IC50 [1]: > 10 µM

CN1C(=O)Cc2c(Nc3ccc(OC(F)(F)F)cc3)ncnc21
IC50 [1]: > 10 µM

Cc1c(Nc2ccc(OC(F)(F)F)cc2)ncnc1-c1ccc(S(N)(=O)=O)cc1
IC50 [1]: > 10 µM

CCNS(=O)(=O)c1ccc(-c2cc(Nc3ccc(OC(F)(F)F)cc3)ncn2)cc1
IC50 [2]: 1.85 µM
IC50 [1]: > 10 µM

O=S(=O)(NCCO)c1ccc(-c2cc(Nc3ccc(OC(F)(F)F)cc3)ncn2)cc1
IC50 [2]: 1.45 µM
IC50 [1]: > 10 µM

CC(C)S(=O)(=O)c1ccc(-c2cc(Nc3ccc(OC(F)(F)F)cc3)ncn2)cc1
IC50 [1]: > 10 µM

CCN(CC)S(=O)(=O)c1ccc(-c2ncnc(Nc3ccc(OC(F)(F)F)cc3)c2C)cc1
IC50 [1]: > 10 µM

CCS(=O)(=O)Nc1ccc(-c2cc(Nc3ccc(OC(F)(F)F)cc3)ncn2)cc1
IC50 [1]: 8.31 µM

CCCCS(=O)(=O)Nc1ccc(-c2cc(Nc3ccc(OC(F)(F)F)cc3)ncn2)cc1
IC50 [1]: 8.92 µM

CC(C)S(=O)(=O)Nc1ccc(-c2cc(Nc3ccc(OC(F)(F)F)cc3)ncn2)cc1
IC50 [1]: 6.93 µM

COCCCNC(=O)c1ccc(-c2ncnc(Nc3ccc(OC(F)(F)F)cc3)c2C)cc1
IC50 [1]: 3.11 µM

FC(F)(F)Oc1ccc(Nc2cc(Nc3cc(C4CC4)[nH]n3)ncn2)cc1
IC50 [1]: 5.62 µM

FC(F)(F)Oc1ccc(Nc2cc(Nc3nccn3-c3cccc(C(F)(F)F)c3)ncn2)cc1
IC50 [1]: 2.56 µM

Cn1cc(-c2cc(Nc3ccc(OC(F)(F)F)cc3)ncn2)cn1
IC50 [1]: > 10 µM

Cc1c(Nc2ccc(OC(F)(F)F)cc2)ncnc1-c1cnn(CC(C)C)c1
IC50 [1]: 1.46 µM

CCS(=O)(=O)n1cc(-c2cc(Nc3ccc(OC(F)(F)F)cc3)ncn2)cn1
IC50 [2]: 4.25 µM
IC50 [1]: > 10 µM

FC(F)(F)Oc1ccc(Nc2cc(-c3cnn(Cc4ccncc4)c3)ncn2)cc1
IC50 [2]: 4 µM
IC50 [1]: 7.3 µM

FC(F)(F)Oc1ccc(Nc2cc(-c3cc(NCCN4CCOCC4)ncn3)ncn2)cc1
IC50 [1]: > 10 µM

Cc1c(Nc2ccc(OC(F)(F)F)cc2)ncnc1-c1cnn(C)c1
IC50 [1]: > 10 µM

Cc1c(-c2cc(Nc3ccc(OC(F)(F)F)cc3)ncn2)cnn1-c1ccccc1
IC50 [2]: 6.23 µM
IC50 [1]: > 10 µM

Cc1c(Nc2ccc(OC(F)(F)F)cc2)ncnc1-c1cnn(-c2ccccc2)c1C
IC50 [2]: 5.24 µM
IC50 [1]: 8.85 µM

FC(F)(F)Oc1ccc(Nc2cc(-c3cccc4[nH]ccc34)ncn2)cc1
IC50 [2]: 6.67 µM
IC50 [1]: > 10 µM

FC(F)(F)Oc1ccc(Nc2cc(-c3c[nH]c4ccccc34)ncn2)cc1
IC50 [2]: 9.28 µM
IC50 [1]: > 10 µM

FC(F)(F)Oc1ccc(Nc2cc(-c3ccc4[nH]ccc4c3)ncn2)cc1
IC50 [2]: 8.71 µM
IC50 [1]: > 10 µM

O=Cc1cc(-c2cc(Nc3ccc(OC(F)(F)F)cc3)ncn2)co1
IC50 [2]: 3.83 µM
IC50 [1]: > 10 µM

FC(F)(F)Oc1ccc(Nc2cc(-c3cccc4sccc34)ncn2)cc1
IC50 [2]: 3.74 µM
IC50 [1]: 3.06 µM

Cc1c(Nc2ccc(OC(F)(F)F)cc2)ncnc1-c1cccc2[nH]ccc12
IC50 [2]: > 10 µM
IC50 [1]: > 10 µM

FC(F)(F)Oc1ccc(Nc2cc(-c3cccc4c3oc3ccccc34)ncn2)cc1
IC50 [2]: 4.6 µM
IC50 [1]: > 10 µM

FC(F)(F)Oc1ccc(Nc2cc(-c3cnn(Cc4ccccc4)c3)ncn2)cc1
IC50 [2]: 1.3 µM
IC50 [1]: > 10 µM

Cc1c(Nc2ccc(OC(F)(F)F)cc2)ncnc1-c1cnn(Cc2ccccc2)c1
IC50 [1]: 9.9 µM

FC(F)(F)Oc1ccc(Nc2cc(-c3cc(Nc4ccc(OC(F)(F)F)cc4)ncn3)ncn2)cc1
IC50 [2]: 7 µM
IC50 [1]: > 10 µM

Cc1ccc(NC(=O)c2ccccc2)cc1Nc1nccn1-c1cc(Nc2ccc(OC(F)(F)F)cc2)ncn1
IC50 [2]: > 10 µM
IC50 [1]: > 10 µM

Cc1ccc(NC(=O)c2ccc(CN3CCOCC3)c(C(F)(F)F)c2)cc1Nc1nccn1-c1cc(Nc2ccc(OC(F)(F)F)cc2)ncn1
IC50 [2]: 6.61 µM
IC50 [1]: > 10 µM

FC(F)(F)Oc1ccc(Nc2cc(-c3cnn(Cc4cccnc4)c3)ncn2)cc1
IC50 [1]: > 10 µM

FC(F)(F)Oc1ccc(Nc2cc(-c3ccnc4[nH]ccc34)ncn2)cc1
IC50 [2]: > 10 µM
IC50 [1]: 6.85 µM

O=c1cc(-c2cc(Nc3ccc(OC(F)(F)F)cc3)ncn2)cc[nH]1
IC50 [2]: > 10 µM
IC50 [1]: > 10 µM

Cc1nc(-c2cc(Nc3ccc(OC(F)(F)F)cc3)ncn2)cs1
IC50 [2]: > 10 µM
IC50 [1]: > 10 µM

O=Cc1cc(-c2cc(Nc3ccc(OC(F)(F)F)cc3)ncn2)ccc1F
IC50 [2]: 5.84 µM
IC50 [1]: 4.12 µM

CN1CCN(c2cc(-c3cc(Nc4ccc(OC(F)(F)F)cc4)ncn3)ccn2)CC1
IC50 [2]: 0.386 µM
IC50 [1]: 0.71 µM

O=Cc1cnc2c(ccn2CCN2CCOCC2)c1Nc1ccc(OC(F)(F)F)cc1Br
IC50 [1]: > 10 µM

O=[N+]([O-])c1cccc(-c2cn3cnc(Nc4ccc(OC(F)(F)F)cc4)cc3n2)c1 [2-(3-nitrophenyl)-N-(4-(trifluoromethoxy)phenyl)imidazo[1,2-c]pyrimidin-7-amine]
IC50 [1]: 9.6 µM

OCCn1ncc2c(Nc3ccc(OC(F)(F)F)cc3)ncnc21 [2-(4-(4-(trifluoromethoxy)phenylamino)-1H-pyrazolo[3,4-d]pyrimidin-1-yl)ethanol]
IC50 [1]: > 10 µM

OCCn1cc2c(Nc3ccc(OC(F)(F)F)cc3)ncnc2n1 [2-(4-(4-(trifluoromethoxy)phenylamino)-2H-pyrazolo[3,4-d]pyrimidin-2-yl)ethanol]
IC50 [1]: > 10 µM

O=C(NCCN1CCOCC1)c1cc2c(Nc3ccc(OC(F)(F)F)cc3)ncnc2s1 [drawing 332]
IC50 [2]: > 10 µM
